The text below walks through data of PMC12635268, “Novel antimicrobial peptides and peptide-microbiome crosstalk in Appalachian salamander skin” (NPJ Biofilms and Microbiomes, 2025).

Read-outs that look alike come from different tables or passages of the source. Ends that are not written are not given here.

One data set deals with A. baumannii 5075. The note with it: Week 2 (12/14/2023).
On the set-up of data set [1]: method as in Biomatik (vendor). Conditions: 1.0 mg peptide in 1.0 ml solvent; peptides synthesized by Biomatik; ref Biomatik (vendor); cited from earlier work.
Another data set relates to E. faecium ATCC 19434. Put plainly: microbe, parasite or virus in culture. A digest of the protocol: (§1)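 Each strain was exposed in duplicate to two-fold peptide dilutions (0.25 to 128 μg/mL) in cation-adjusted Mueller-Hinton broth at 1 × 10⁵ CFU/mL. After 20 h at 37 °C without shaking, the lowest concentration lacking visible growth was recorded following CLSI.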
For another data set, the system named is K. pneumoniae ATCC 13883. Put plainly: microbe, parasite or virus in culture. Put shortly: as §1
The subject of a further data set is A. baumannii ATCC 17978. Put plainly: microbe, parasite or virus in culture. Put shortly: as §1
The test system of the next data set is P. aeruginosa ATCC 27853. Kind of data set: microbe, parasite or virus in culture. A digest of the protocol:
as §1

A further data set deals with E. coli ATCC 35218. Kind of data set: microbe, parasite or virus in culture. The note with it: E. coli 35218; Week 2 (12/14/2023). A digest of the protocol:
as §1

A further data set concerns E. coli ATCC 43888. Kind of data set: microbe, parasite or virus in culture. A digest of the protocol: as §1
For data set [2], the system named is K. pneumoniae ATCC 700603. Put plainly: microbe, parasite or virus in culture. Conditions: K. pneumoniae 700603; Week 2 (12/14/2023). Put shortly: as §1
A further data set relates to E. cloacae ATCC 13047. Kind of data set: microbe, parasite or virus in culture. Put shortly: as §1
The next data set relates to E. faecium ATCC 49224. Put plainly: microbe, parasite or virus in culture. Put shortly:
as §1

The next data set has as its system S. aureus ATCC 25923. Put plainly: microbe, parasite or virus in culture. Put shortly: as §1
A further data set concerns A. baumannii ATCC 19606. Kind of data set: microbe, parasite or virus in culture. Put shortly: as §1
Another data set has as its system P. aeruginosa MRSN 5519. Put plainly: microbe, parasite or virus in culture. A digest of the protocol: as §1
Another data set relates to E. cloacae ATCC 35549. Put plainly: microbe, parasite or virus in culture. Put shortly: as §1
For another data set, the system named is S. aureus ATCC 43300. Kind of data set: microbe, parasite or virus in culture. Conditions: S. aureus 43300; Week 2 (12/14/2023). A digest of the protocol:
as §1

A further data set has as its system P. aeruginosa PA01 (Si). Put plainly: microbe, parasite or virus in culture. In kind it is cell-based. The source says:
Supplement 41522_2025_837_MOESM13_ESM.xlsx, sheet "Table_S13_ESKAPEE-MIC" | column: Bacterial MIC (µg/mL)

The next data set concerns P. aeruginosa PA01. Kind of data set: microbe, parasite or virus in culture. Format: cell-based. Conditions: P. aeruginosa 15692 (PAO1); Week 2 (12/14/2023). A digest of the protocol: as §1
Data set [3] relates to Batrachochytrium dendrobatidis Bd-GPL strain JEL404. Conditions: slope of growth, positive = inhibition, negative = no inhibition.
The mark [4] stands for this setting: E. faecium 19434, Week 2 (12/14/2023).
Setting [5] is: K. pneumoniae 13883, Week 2 (12/14/2023).
[6] abbreviates: A. baumannii 17978, Week 2 (12/14/2023).
Where [7] appears, read: P. aeruginosa 27853, Week 2 (12/14/2023).
Setting [8] is: E. coli 43888, Week 2 (12/14/2023).
[9] abbreviates: E. cloacae 13047, Week 2 (12/14/2023).
The mark [10] stands for this setting: E. faecium 49224, Week 2 (12/14/2023).
[11] abbreviates: S. aureus 25923, Week 2 (12/14/2023).
Setting [12] is: A. baumannii 19606, Week 2 (12/14/2023).
[13] abbreviates: P. aeruginosa 5519, Week 2 (12/14/2023).
Where [14] appears, read: E. cloacae 35549, Week 2 (12/14/2023).
Where [15] appears, read: K. pneumoniae 4640, Week 2 (12/14/2023).
The mark [16] stands for this setting: P. aeruginosa PA01 (Si), not typical ESKAPEE strain, Week 2 (12/14/2023).
Where [17] appears, read: synthesized peptide 15.625 μg/mL.
[18] abbreviates: synthesized peptide 31.25 μg/mL.

As for SGLRGSL [PrMb-Eb19], the “Bacterial MIC” value in the data set with A. baumannii 5075 is on record as over 128.000 µg/mL; in the data set with E. faecium ATCC 19434 (ATCC 19434, 20 h), over 128.000 µg/mL; with K. pneumoniae ATCC 13883 (ATCC 13883, 20 h), over 128.000 µg/mL; with A. baumannii ATCC 17978 (ATCC 17978, 20 h) it was over 128.000 µg/mL; in the data set on P. aeruginosa ATCC 27853 (ATCC 27853, 20 h), over 128.000 µg/mL; in the data set with E. coli ATCC 35218, over 128.000 µg/mL. Also, the “Bacterial MIC” value was over 128.000 µg/mL in the data set with E. coli ATCC 43888 (ATCC 43888, 20 h); over 128.000 µg/mL in data set [2]; over 128.000 µg/mL in the data set on E. cloacae ATCC 13047 (ATCC 13047, 20 h); over 128.000 µg/mL with E. faecium ATCC 49224 (ATCC 49224, 20 h); over 128.000 µg/mL with S. aureus ATCC 25923 (ATCC 25923, 20 h); over 128.000 µg/mL with A. baumannii ATCC 19606 (ATCC 19606, 20 h). The “Bacterial MIC” value was over 128.000 µg/mL in the data set on P. aeruginosa MRSN 5519 (MRSN 5519, 20 h); over 128.000 µg/mL with E. cloacae ATCC 35549 (ATCC 35549, 20 h); over 128.000 µg/mL in the data set on S. aureus ATCC 43300; over 128.000 µg/mL in the data set on K. pneumoniae 4640 (4640, 20 h); over 128.000 µg/mL in the data set with P. aeruginosa PA01 (Si) (Si); over 128.000 µg/mL in the data set with P. aeruginosa PA01. For the same substance, the “Suggest solvent (solubility)” value in data set [1] is on record as 1.0mg peptide soluble in 1.0ml H2O. The “Bd inhibition score (percent inhibition), mean” value in data set [3] (synthesized peptide 62.5 μg/mL) is -38.0157%.
In the case of RMIRRPPGFTPFR [PrAd-Eb10], the “Bacterial MIC” value with A. baumannii 5075, in the data set on E. faecium ATCC 19434 (setting [4]), in the data set with K. pneumoniae ATCC 13883 (setting [5]), in the data set on A. baumannii ATCC 17978 (setting [6]), in the data set on P. aeruginosa ATCC 27853 (setting [7]) and in the data set on E. coli ATCC 35218 was over 128.000 µg/mL throughout. Further, the “Bacterial MIC” value (in the data set with E. coli ATCC 43888 (setting [8]); in data set [2]; with E. cloacae ATCC 13047 (setting [9]); in the data set on E. faecium ATCC 49224 (setting [10]); with S. aureus ATCC 25923 (setting [11]); in the data set on A. baumannii ATCC 19606 (setting [12])) was over 128.000 µg/mL each time. The “Bacterial MIC” value in the data set with P. aeruginosa MRSN 5519 (setting [13]), with E. cloacae ATCC 35549 (setting [14]), with S. aureus ATCC 43300, in the data set with K. pneumoniae 4640 (setting [15]), in the data set on P. aeruginosa PA01 (Si) (setting [16]) and in the data set on P. aeruginosa PA01 was over 128.000 µg/mL throughout. Moreover, the “Suggest solvent (solubility)” value in data set [1] is 1.0mg peptide soluble in 1.0ml H2O. The “Bd inhibition score (percent inhibition), mean” value in data set [3] (setting [17]) is on record as -10.4305%; in data set [3] (setting [18]), -6.071%; in data set [3] (synthesized peptide 62.5 μg/mL), -6.0656%; in data set [3] (synthesized peptide 125 μg/mL), -13.7553%; in [3] (synthesized peptide 250 μg/mL), -14.8924%; in data set [3] (synthesized peptide 500 μg/mL), -12.1229%.
As to EPVPPGFTPFR [PrAd-Eb13], the “Bacterial MIC” value in the data set on A. baumannii 5075, with E. faecium ATCC 19434 (setting [4]), in the data set on K. pneumoniae ATCC 13883 (setting [5]), with A. baumannii ATCC 17978 (setting [6]), with P. aeruginosa ATCC 27853 (setting [7]) and in the data set on E. coli ATCC 35218 was over 128.000 µg/mL throughout. Also, the “Bacterial MIC” value (with E. coli ATCC 43888 (setting [8]); in [2]; in the data set with E. cloacae ATCC 13047 (setting [9]); with E. faecium ATCC 49224 (setting [10]); with S. aureus ATCC 25923 (setting [11]); in the data set on A. baumannii ATCC 19606 (setting [12])) was over 128.000 µg/mL each time. For the same substance, the “Bacterial MIC” value with P. aeruginosa MRSN 5519 (setting [13]), in the data set with E. cloacae ATCC 35549 (setting [14]), in the data set with S. aureus ATCC 43300, in the data set on K. pneumoniae 4640 (setting [15]), in the data set on P. aeruginosa PA01 (Si) (setting [16]) and in the data set on P. aeruginosa PA01 was over 128.000 µg/mL in each case. In [1], the “Suggest solvent (solubility)” value is on record as 1.0mg peptide soluble in 1.0ml H2O. Also, the “Bd inhibition score (percent inhibition), mean” value is reported as -15.8993% in [3] (setting [17]); -14.7717% in [3] (setting [18]); -15.0589% in data set [3] (synthesized peptide 62.5 μg/mL); -17.1018% in data set [3] (synthesized peptide 125 μg/mL); -17.5569% in [3] (synthesized peptide 250 μg/mL); -12.696% in data set [3] (synthesized peptide 500 μg/mL).
